{"source": "patent US20260216074A1", "about": "“USE OF PACLITAXEL CATIONIC LIPOSOME IN TREATING TUMORS” (CSPC ZHONGQI PHARMACEUTICAL TECHNOLOGY (SHIJIAZHUANG) CO., …, priority 2023, published 2026)", "key": {"[1]": {"test_system": "human triple-negative breast cancer MDA-MB-231 xenografts", "experiment": "Inhibitory effect on human triple-negative breast cancer MDA-MB-231 xenografts in mice", "assay_type": "in vivo, human cells in female NOD/SCID mice", "details": "dose 400 mg/kg po", "procedure": "Experimental animal: female NOD/SCID mice provided by Beijing Vital River Laboratory Animal Technology Co., Ltd.\nExperimental method: Female NOD/SCID mice were subcutaneously inoculated with human triple-negative breast cancer MDA-MB-231 cells. 7 days after inoculation, the mice were divided into 7 groups when the mean tumor volume was 120 to 130 mm^3 (d0), namely, the vehicle control group (5% glucose injection), the 6 mg/kg of A1 group, the 3 mg/kg or 6 mg/kg of A1+400 mg/kg of capecitabine for injection (CAP) group, the 6 mg/kg of paclitaxel injection (Taxol) group, the 6 mg/kg of Taxol+400 mg/kg of CAP group, and the 400 mg/kg of CAP group, respectively. The CAP for injection was administered intragastrically twice a week and the other drugs were administered intravenously twice a week for a total of 7 times (d0, d3, d7, d10, d14, d17, and d21). The experiment was terminated at d28. During the experiment, the body weight and tumor volume of animals were monitored twice a week, and the tumor volume (TV) was calculated. At the end of the experiment, the tumor weight was weighed and the tumor weight inhibition rate was calculated.\nMethods for drug preparation: CAP was prepared by diluting with water for injection to the desired concentration, and the rest of drugs were prepared according to the method described in Example 3."}, "[2]": {"test_system": "prostate cancer RM-1 allografts", "experiment": "Inhibitory effect of combination with DDP on prostate cancer RM-1 allografts in mice", "assay_type": "in vivo, mouse RM-1 cells in female C57/BL6 mice", "procedure": "Experimental animal: female C57/BL6 mice provided by Beijing Vital River Laboratory Animal Technology Co., Ltd.\nExperimental method: Female C57/BL6 mice were subcutaneously inoculated with mouse prostate RM-1 cells. Six days after inoculation, the mice were grouped when the mean tumor volume was about 140 mm^3 (d0). Drugs were administered intravenously (except that DDP was administered intraperitoneally) at d0, d2, d4, d6, d8, and d10 for a total of 6 times. The experiment was terminated at d15. In the A1 high-dose group, A1 was administered at a dose of 12 mg/kg for the first three times and 6 mg/kg for the last three times, with a cumulative dose of 54 mg/kg; in the A1 low-dose group, A1 was administered at a dose of 6 mg/kg for six times, with a cumulative dose of 36 mg/kg; in the DPP group, DPP was administered at a dose of 1 mg/kg for six times, with a cumulative dose of 6 mg/kg; in the vehicle control group, 5% glucose injection (at an equal volume to A1 high-dose group) was administered; in the A1+DDP-1 group, A1 was administered at a dose of 6 mg/kg for six times, with a cumulative dose of 36 mg/kg, and DPP was administered at a dose of 1 mg/kg for six times, with a cumulative dose of 6 mg/kg; in the A1+DDP-2 group, A1 was administered at a dose of 12 mg/kg for the first three times and 6 mg/kg for the last three times with a cumulative dose of 54 mg/kg, and DPP was administered at a dose of 1 mg/kg for six times, with a cumulative dose of 6 mg/kg. During the experiment, the body weight and tumor volume of animals were monitored three times a week, and the values of the tumor volume (TV), relative tumor volume (RTV), and relative tumor proliferation rate (T/C) were calculated.\nMethods for drug preparation: A1: the paclitaxel cationic liposome was dissolved by adding water for injection, and then diluted with glucose and sodium chloride injection to the desired concentration; DDP: the DDP powder was dissolved in 5% glucose injection and subjected to ultrasound to formulate the desired concentration."}, "[3]": {"test_system": "human pancreatic cancer CFPAC-1 xenografts", "experiment": "Inhibitory effect on human pancreatic cancer CFPAC-1 xenografts in mice", "assay_type": "in vivo, human cells in female Nu/Nu nude mice", "procedure": "Experimental animal: female Nu/Nu nude mice provided by Beijing Vital River Laboratory Animal Technology Co., Ltd.\nExperimental method: Female Nu/Nu nude mice were subcutaneously inoculated with human pancreatic cancer CFPAC-1 cells. 5 days after inoculation, the mice were divided into 7 groups when the mean tumor volume was 228 mm^3 (d0), namely, the vehicle control group (5% glucose injection), the 6 mg/kg of A1 group, the 3 mg/kg or 6 mg/kg of A1+20 mg/kg of gemcitabine for injection (GEM) group, the 6 mg/kg of paclitaxel injection (Taxol) group, the 6 mg/kg of Taxol+20 mg/kg of GEM group, and the 20 mg/kg of GEM group, respectively. There were 10 mice in each group. Drugs were administered intravenously (except that the GEM was administered intraperitoneally for 5 times (at the first five time points)) at d0, d3, d6, d9, d13, and d16 for a total of 6 times. After the last administration, the mice were further observed for 11 d (i.e. d27) and the experiment was terminated. During the experiment, the body weight and tumor volume of animals were monitored twice a week, and the tumor volume (TV) was calculated. At the end of the experiment, the tumor weight was weighed and the tumor weight inhibition rate was calculated.\nMethods for drug preparation: A1 was prepared using the same method as in Example 2. The gemcitabine for injection was dissolved in saline to achieve the desired concentration. Paclitaxel injection (Taxol) was diluted with saline to the desired concentration."}}, "note": "Marks after values point to notes of the source that are not given here.", "data": [{"smiles": "CCCCCOC(=O)Nc1nc(=O)n([C@@H]2O[C@H](C)[C@@H](O)[C@H]2O)cc1F", "note": "[CAP, capecitabine]", "values": [{"measurement": "Tumor Volume d20", "setting": "[1]; 7 times, x ± sd, n = 10", "value": "1708.3 ± 564.8** mm^3"}, {"measurement": "Tumor Volume d0", "setting": "[1]; d0 at grouping, before dosing, x ± sd, n = 10", "value": "124.5 ± 19.4", "unit": "mm^3"}, {"measurement": "Tumor Weight Inhibition Rate", "setting": "[1]; end of experiment (d28)", "value": 33.4, "unit": "%"}, {"measurement": "Tumor Weight", "setting": "[1]; end of experiment (d28), x ± sd, n = 10", "value": "1.3679 ± 0.2649", "unit": "g"}]}, {"smiles": "N.N.[Cl][Pt][Cl]", "note": "[DDP, Cisplatin]", "values": [{"measurement": "Tumor Volume d15", "setting": "[2]; cumulative dose 6 mg/kg (1 mg/kg x6) i.p., d0-d10, x ± sd, n = 9", "value": "3494.6 ± 710.9", "unit": "mm^3"}, {"measurement": "Tumor Volume d0", "setting": "[2]; cumulative dose 6 mg/kg (1 mg/kg x6) i.p., d0 at grouping, before dosing, x ± sd, n = 9", "value": "145.1 ± 22.8", "unit": "mm^3"}, {"measurement": "T/C", "setting": "[2]; cumulative dose 6 mg/kg i.p., d15", "value": 77.1, "unit": "%"}, {"measurement": "RTV", "setting": "[2]; cumulative dose 6 mg/kg i.p., d15, x ± sd, n = 9", "value": "24.9 ± 7.6"}]}, {"smiles": "Nc1ccn([C@@H]2O[C@H](CO)[C@@H](O)C2(F)F)c(=O)n1", "note": "[GME, gemcitabine]", "values": [{"measurement": "Tumor Volume d27", "setting": "[3]; dose 20 mg/kg ip x5, x ± sd, n = 10", "value": "720.9 ± 152.8** mm^3"}, {"measurement": "Tumor Volume d0", "setting": "[3]; dose 20 mg/kg ip, d0 at grouping, before dosing, x ± sd, n = 10", "value": "227.3 ± 52.8", "unit": "mm^3"}, {"measurement": "Tumor Weight Inhibition Rate", "setting": "[3]; dose 20 mg/kg ip, end of experiment (d27)", "value": 48.4, "unit": "%"}, {"measurement": "Tumor Weight", "setting": "[3]; dose 20 mg/kg ip, end of experiment (d27), x ± sd, n = 10", "value": "0.8238 ± 0.3253", "unit": "g"}]}]}
